Values quoted from earlier work, collected in patent publication US20070110685A1, “Combination therapy for the treatment of immunoinflammatory disorders” (priority 2005, published 2007).

CO[C@H]1C[C@@H]2CC[C@@H](C)[C@@](O)(O2)C(=O)C(=O)N2CCCC[C@H]2C(=O)O[C@H]([C@H](C)C[C@@H]2CC[C@@H](O)[C@H](OC)C2)CC(=O)[C@H](C)/C=C(\C)[C@@H](O)[C@@H](OC)C(=O)[C@H](C)C[C@H](C)/C=C/C=C/C=C/1C [Rapamycin]
absorption after oral administration: absorbed rapidly and completely
